Literature values in patent publication US20140349957A1, “Compositions for Photodynamic Therapy Chemically Modified to Increase Epithelia Penetration and Cellular Bioavailability” (YAGNA LIMITED, priority 2011, published 2014).

System: cells which have incorporated the drug

SMILES: Cc1cn([C@H]2C[C@H](O)[C@@H](CO)O2)c(=O)[nH]c1=S [4 thiothymidine, 4-thiothymidine]
- toxicity of exposure to drug alone (drug alone, no UV-A): does not result in appreciable toxicity
- toxicity to cells upon excitation (excitation at 335 nm (UV-A)): results in toxicity to the cells which have incorporated the drug
